# *: point of attachment. NHNH2 = NN*
# Assays:
# Format in all cases: cell-based
# [1] = system: HepG2 cells expressing EGFP; test: EGFP-targeting siRNA delivery (GFP silencing vs siMOCK), HepG2
# Method: (§1) To generate an EGFP expressing HeLa cell line, HeLa cells were transfected with EGFP pDNA (pEGFP-C1, Clontech) and stable transfectants were selected with 400 μg/mL of G-418 (Millipore). Green clones were selected by epifluorescence microscopy and tested for EGFP expression stability through several passages. […] All other EGFP-expressing cell lines were obtained in a similar way from parent non-EGFP-expressing cell lines.
# (§2) Cells expressing EGFP were seeded in a 96 well plate the day before the experiment at a concentration of 50,000 cell/mL (100 μL/w) in DMEM+10% FBS+1% Gln-Abt. For robotic library screening, the delivery of an EGFP-targeting siRNA (EGFP: enhanced green fluorescent protein, Ambion® Silencer® GFP Positive Control siRNA (siGFP) (AM4626)) in six different cell lines expressing EGFP was performed. […] The mixture was shaken for 30 min at room temperature (rt) before the addition to the cells. The cell medium was aspirated, and cells were washed twice with PBS. Finally, 50 μL of the solution of siRNA/amphiphile complexes were added to the cells and incubated for 4 h. After transfection, the medium was replaced by 100 μL of fresh DMEM supplemented with 10% FBS. The fluorescence knockdown was quantified after 72 h in a plate reader, by comparison with cells transfected with a non-targeting siRNA control (siMOCK, Silencer™ Negative Control No. 1 siRNA (siMOCK) (AM4611)). EGFP knockdown was compared with Lipofectamine® RNAiMAX silencing efficiency (30-60% depending on cell line, defined with a numeric value in the below tables). All experiments were done in triplicate.
# (§3) Tables 1-7: RLuc (pDNA) or EGFP (mRNA) expression levels were normalized to Lipofectamine reagents (value=1) and expressed as fold-times signal increase. In the case of siRNA, the siRNA treated cells fluorescence was compared with siMOCK control fluorescence, while Cas9-RNP mediated knockout was measured against the fluorescence of untreated cells. In both siRNA and Cas9-RNP, values are expressed as % fluorescence reduction. Amphiphile concentration was 5 μM in all cases. All experiments were performed in triplicate.
# (§4) Tables 20-25 show the mean (triplicates) percentage of GFP-silencing, accounted by fluorescence intensity decrease relative to a non-targeting siRNA (siMOCK) control, measured after the transfection of siRNA by different amphiphiles at different concentrations in a variety of cell lines. Background values, accounted by untreated control cells, were subtracted for processing.
# [2] = system: HepG2 cells expressing EGFP; test: Cas9-RNP delivery against EGFP (gene editing, plate reader), HepG2
# Method: as §1
# (§5) Cells expressing EGFP were seeded in a 96 well plate the day before the experiment at a concentration of 50,000 cell/mL (100 μL/w) in DMEM+10% FBS+1% Gln-Abt. For robotic library screening, the delivery of Cas9-RNP against EGFP (RNP designed to knock-out the gene encoding for the enhanced green fluorescent protein (EGFP)) was performed. For RNP assembly, 9.2 μL of crRNA and 9.2 μL of tracrRNA were mixed in 211.6 μL of Nuclease-Free Duplex Buffer (IDT), incubated for 5 min at 95° C. and slowly cooled at rt (see I. Lostalé-Seijo, et al. Peptide/Cas9 nanostructures for ribonucleoprotein cell membrane transport and gene edition, Chem. Sci., 2017). Cas9 protein was dissolved in DMEM at a final concentration of 4 μM and equal volumes of the RNA complex and Cas9 were mixed and incubated for 5 min at rt. 75 μL of the corresponding amphiphile concentrations were added to 5 μL of RNP at 2 μM. The mixture was shaken for 30 min at room temperature before the addition to the cells. The cell medium was aspirated, and cells were washed twice with PBS. Cells were covered with 30 μL of DMEM and 20 μL of the RNP/amphiphile complexes were added to the cells (final peptide concentrations=2.5, 5 and 10 μM; final Cas9-RNP concentration=50 nM) and incubated for 4 h. After the incubation, the medium was replaced by 100 μL of fresh DMEM supplemented with 10% FBS. The total EGFP fluorescence was quantified after 72 h in a plate reader (FIG. 2, Table 1 (right) and Table 6). All experiments were done in triplicate. […]
# (§6) Tables 26-31 show the mean (triplicates) percentage of gene editing, accounted by GFP fluorescence intensity decrease (% of reduction), measured after the transfection of Cas9-RNP by different amphiphiles at different concentrations in a variety of cell lines. Background values, accounted by untreated control cells, were subtracted for processing.
# [3] = system: ARPE19 cells expressing EGFP; test: EGFP-targeting siRNA delivery (GFP silencing vs siMOCK), ARPE19
# Method: as §1, §2, §3, §4
# [4] = system: ARPE19 cells expressing EGFP; test: Cas9-RNP delivery against EGFP (gene editing, plate reader), ARPE19
# Method: as §1, §5, §6
# [5] = system: Hek293 cells expressing EGFP; test: EGFP-targeting siRNA delivery (GFP silencing vs siMOCK), Hek293
# Method: as §1, §2, §3, §4
substance,measurement,setting,value
"Ac-RK*LRRK*L-NH2 (Ac-RK(NHNH2)LRRK(NHNH2)L-NH2; not fully specified; printed as Ac-RK*LRRK*L-NH2; also: K*2,K*6: native or modified lysine (ε-amide to a linker)) [Peptide 7.2]",percentage of GFP-silencing relative to siMOCK,"[1]; Dodecanal, 10 μM",14%
same,percentage of GFP-silencing relative to siMOCK,"[1]; Dodecanal, 15 μM",7%
same,percentage of GFP-silencing relative to siMOCK,"[1]; Myristoleyl, 5 μM",−12%
same,percentage of GFP-silencing relative to siMOCK,"[1]; Myristoleyl, 10 μM",−1%
same,percentage of GFP-silencing relative to siMOCK,"[1]; Myristoleyl, 15 μM",−32%
same,"percentage of gene editing, GFP fluorescence intensity decrease (% of reduction)","[2]; Dodecanal, 5 μM",−23%
same,"percentage of gene editing, GFP fluorescence intensity decrease (% of reduction)","[2]; Dodecanal, 10 μM",−56%
same,"percentage of gene editing, GFP fluorescence intensity decrease (% of reduction)","[2]; Dodecanal, 15 μM",−47%
same,"percentage of gene editing, GFP fluorescence intensity decrease (% of reduction)","[2]; Myristoleyl, 5 μM",−42%
same,"percentage of gene editing, GFP fluorescence intensity decrease (% of reduction)","[2]; Myristoleyl, 10 μM",−40%
same,"percentage of gene editing, GFP fluorescence intensity decrease (% of reduction)","[2]; Myristoleyl, 15 μM",−21%
same,percentage of GFP-silencing relative to siMOCK,"[3]; Dodecanal, 5 μM",4%
same,percentage of GFP-silencing relative to siMOCK,"[3]; Dodecanal, 10 μM",10%
same,percentage of GFP-silencing relative to siMOCK,"[3]; Dodecanal, 15 μM",20%
same,percentage of GFP-silencing relative to siMOCK,"[3]; Myristoleyl, 5 μM",14%
same,percentage of GFP-silencing relative to siMOCK,"[3]; Myristoleyl, 10 μM",28%
same,"percentage of gene editing, GFP fluorescence intensity decrease (% of reduction)","[4]; Dodecanal, 5 μM",0%
same,"percentage of gene editing, GFP fluorescence intensity decrease (% of reduction)","[4]; Dodecanal, 10 μM",0%
same,"percentage of gene editing, GFP fluorescence intensity decrease (% of reduction)","[4]; Myristoleyl, 5 μM",3%
same,"percentage of gene editing, GFP fluorescence intensity decrease (% of reduction)","[4]; Myristoleyl, 15 μM",−8%
same,percentage of GFP-silencing relative to siMOCK,"[5]; Dodecanal, 15 μM",7%
same,percentage of GFP-silencing relative to siMOCK,"[5]; Myristoleyl, 5 μM",−8%
"Ac-RK*LRRK*LRK*-NH2 (Ac-RK(NHNH2)LRRK(NHNH2)LRK(NHNH2)-NH2; not fully specified; printed as Ac-RK*LRRK*LRK*-NH2; also: K*2,K*6,K*9: native or modified lysine (ε-amide to a linker)) [Peptide 9.3]",percentage of GFP-silencing relative to siMOCK,"[1]; Myristoleyl, 5 μM",−11%
same,percentage of GFP-silencing relative to siMOCK,"[1]; Myristoleyl, 15 μM",6%
same,percentage of GFP-silencing relative to siMOCK,"[1]; Oleyl, 10 μM",−9%
same,percentage of GFP-silencing relative to siMOCK,"[1]; Palmitoleyl, 5 μM",−2%
same,percentage of GFP-silencing relative to siMOCK,"[1]; Palmitoleyl, 15 μM",−2%
same,percentage of GFP-silencing relative to siMOCK,"[1]; Petroselinyl, 15 μM",−3%
same,"percentage of gene editing, GFP fluorescence intensity decrease (% of reduction)","[2]; Dodecanal, 10 μM",−29%
same,"percentage of gene editing, GFP fluorescence intensity decrease (% of reduction)","[2]; Dodecanal, 15 μM",−26%
same,"percentage of gene editing, GFP fluorescence intensity decrease (% of reduction)","[2]; Myristoleyl, 10 μM",−5%
same,"percentage of gene editing, GFP fluorescence intensity decrease (% of reduction)","[2]; Oleyl, 5 μM",−10%
same,"percentage of gene editing, GFP fluorescence intensity decrease (% of reduction)","[2]; Oleyl, 10 μM",3%
same,"percentage of gene editing, GFP fluorescence intensity decrease (% of reduction)","[2]; Petroselinyl, 5 μM",−24%
same,"percentage of gene editing, GFP fluorescence intensity decrease (% of reduction)","[2]; Petroselinyl, 10 μM",−19%
same,percentage of GFP-silencing relative to siMOCK,"[3]; Dodecanal, 5 μM",57%
same,percentage of GFP-silencing relative to siMOCK,"[3]; Dodecanal, 10 μM",57%
same,percentage of GFP-silencing relative to siMOCK,"[3]; Dodecanal, 15 μM",34%
same,percentage of GFP-silencing relative to siMOCK,"[3]; Myristoleyl, 5 μM",47%
same,percentage of GFP-silencing relative to siMOCK,"[3]; Oleyl, 5 μM",20%
same,percentage of GFP-silencing relative to siMOCK,"[3]; Oleyl, 10 μM",55%
same,percentage of GFP-silencing relative to siMOCK,"[3]; Oleyl, 15 μM",51%
same,percentage of GFP-silencing relative to siMOCK,"[3]; Palmitoleyl, 5 μM",51%
same,percentage of GFP-silencing relative to siMOCK,"[3]; Palmitoleyl, 10 μM",30%
same,percentage of GFP-silencing relative to siMOCK,"[3]; Palmitoleyl, 15 μM",11%
same,percentage of GFP-silencing relative to siMOCK,"[3]; Petroselinyl, 5 μM",18%
same,percentage of GFP-silencing relative to siMOCK,"[3]; Petroselinyl, 10 μM",49%
same,percentage of GFP-silencing relative to siMOCK,"[3]; Petroselinyl, 15 μM",52%
same,"percentage of gene editing, GFP fluorescence intensity decrease (% of reduction)","[4]; Dodecanal, 5 μM",5%
same,"percentage of gene editing, GFP fluorescence intensity decrease (% of reduction)","[4]; Dodecanal, 15 μM",−14%
same,"percentage of gene editing, GFP fluorescence intensity decrease (% of reduction)","[4]; Myristoleyl, 15 μM",−25%
same,"percentage of gene editing, GFP fluorescence intensity decrease (% of reduction)","[4]; Oleyl, 10 μM",23%
same,"percentage of gene editing, GFP fluorescence intensity decrease (% of reduction)","[4]; Oleyl, 15 μM",22%
same,"percentage of gene editing, GFP fluorescence intensity decrease (% of reduction)","[4]; Palmitoleyl, 5 μM",3%
same,"percentage of gene editing, GFP fluorescence intensity decrease (% of reduction)","[4]; Palmitoleyl, 15 μM",8%
same,"percentage of gene editing, GFP fluorescence intensity decrease (% of reduction)","[4]; Petroselinyl, 15 μM",−2%
same,percentage of GFP-silencing relative to siMOCK,"[5]; Dodecanal, 5 μM",19%
same,percentage of GFP-silencing relative to siMOCK,"[5]; Dodecanal, 15 μM",40%
same,percentage of GFP-silencing relative to siMOCK,"[5]; Myristoleyl, 10 μM",10%
same,percentage of GFP-silencing relative to siMOCK,"[5]; Myristoleyl, 15 μM",43%
same,percentage of GFP-silencing relative to siMOCK,"[5]; Oleyl, 15 μM",28%
same,percentage of GFP-silencing relative to siMOCK,"[5]; Palmitoleyl, 10 μM",17%
same,percentage of GFP-silencing relative to siMOCK,"[5]; Palmitoleyl, 15 μM",36%
same,percentage of GFP-silencing relative to siMOCK,"[5]; Petroselinyl, 10 μM",3%
same,percentage of GFP-silencing relative to siMOCK,"[5]; Petroselinyl, 15 μM",−12%

# Source: patent US20250304623A1, “PEPTIDES FOR INTRACELLULAR DELIVERY” (UNIVERSIDADE DE SANTIAGO DE COMPOSTELA, priority 2022, published 2025)
